Results as given in ChEMBL document CHEMBL1201862, “PubChem BioAssay data set” (2004).
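Five concentrations, 48 hours, 96-well plates. GI50 = concentration required for 50% inhibition of growth.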 Activity calls are given as the source filed them. No stated cut-off is given here; in the data, active = GI50 up to about 1.1 µM and inactive = higher.

How the values were obtained:
Assay in all cases: NCI-60 cell line screen, 48 h
[1] = test system: NCI-H460
[2] = test system: PC-3
[3] = test system: ACHN
[4] = test system: SK-MEL-28
[5] = test system: SW-620
[6] = test system: COLO 205
[7] = test system: MOLT-4
[8] = test system: SF-295
[9] = test system: 786-0
[10] = test system: HT-29
[11] = test system: CCRF-CEM
[12] = test system: SF-539
[13] = test system: SN12C
[14] = test system: Malme-3M
[15] = test system: SNB-19
[16] = test system: BT-549
[17] = test system: SNB-75
[18] = test system: SK-OV-3
[19] = test system: DU-145
[20] = test system: HCT-15
[21] = test system: OVCAR-4
[22] = test system: HOP-62
[23] = test system: SK-MEL-2
[24] = test system: SK-MEL-5
[25] = test system: MDA-N
[26] = test system: M14
[27] = test system: LOX IMVI
[28] = test system: OVCAR-3
[29] = test system: KM12
[30] = test system: RXF 393
[31] = test system: Hs-578T
[32] = test system: IGROV-1
[33] = test system: TK-10
[34] = test system: HCC 2998
[35] = test system: OVCAR-8
[36] = test system: NCI-H522
[37] = test system: NCI-H226
[38] = test system: MCF7
[39] = test system: NCI-H23
[40] = test system: K562
[41] = test system: RPMI-8226
[42] = test system: EKVX
[43] = test system: MDA-MB-231
[44] = test system: UO-31
[45] = test system: HL-60
[46] = test system: HCT-116
[47] = test system: UACC-257
[48] = test system: NCI/ADR-RES
[49] = test system: MDA-MB-435
[50] = test system: CAKI-1
[51] = test system: U-251
[52] = test system: OVCAR-5
[53] = test system: T47D
[54] = test system: HOP-92
[55] = test system: A498
[56] = test system: SF-268
[57] = test system: UACC-62
[58] = test system: A549

With `O=S1(=O)c2ccccc2-c2nccc3ccnc1c23` the GI50 [1] was 13.1 µM (inactive), the GI50 [2] was 7.31 µM (inactive) and the GI50 [3] was 8.57 µM (inactive). For the same compound, the GI50 [4] was 55.6 µM (inactive), the GI50 [5] was 7.23 µM (inactive) and the GI50 [6] was 3.99 µM (inactive). For the same compound, the GI50 [7] was 2.72 µM (inactive), the GI50 [8] was 25 µM (inactive) and the GI50 [9] was 25.5 µM (inactive). For the same compound, the GI50 [10] was 5.58 µM (inactive), the GI50 [11] was 4.02 µM (inactive) and the GI50 [12] was 8.57 µM (inactive). The GI50 [13] was 17.8 µM (inactive), the GI50 [14] was 21.8 µM (inactive) and the GI50 [15] was 23.2 µM (inactive). For the same compound, the GI50 [16] was 3.77 µM (inactive), the GI50 [17] was 27.7 µM (inactive) and the GI50 [18] was 56.9 µM (inactive). The GI50 [19] was 11.3 µM (inactive), the GI50 [20] was 7.87 µM and the GI50 [21] was 37.9 µM (inactive). For the same compound, the GI50 [22] was 40.7 µM (inactive), the GI50 [23] was 28.7 µM (inactive) and the GI50 [24] was 4.82 µM (inactive). For the same compound, the GI50 [25] was 7.87 µM (inactive), the GI50 [26] was 19.1 µM (inactive) and the GI50 [27] was 12.6 µM (inactive). For the same compound, the GI50 [28] was 10.3 µM (inactive), the GI50 [29] was 22.8 µM (inactive) and the GI50 [30] was 34 µM (inactive). For the same compound, the GI50 [31] was 32.1 µM (inactive), the GI50 [32] was 7.67 µM (inactive) and the GI50 [33] was 20.8 µM (inactive). The GI50 [34] was 12.8 µM (inactive), the GI50 [35] was 15 µM (inactive) and the GI50 [36] was 8.07 µM (inactive). The GI50 [37] was 43.5 µM (inactive), the GI50 [38] was 6.4 µM (inactive) and the GI50 [39] was 14.6 µM (inactive). For the same compound, the GI50 [40] was 4.33 µM (inactive), the GI50 [41] was 16.2 µM (inactive) and the GI50 [42] was 15.4 µM (inactive). For the same compound, the GI50 [43] was 17.8 µM (inactive), the GI50 [44] was 8.24 µM (inactive) and the GI50 [45] was 4.76 µM (inactive). For the same compound, the GI50 [46] was 12.9 µM (inactive), the GI50 [47] was 28.5 µM (inactive) and the GI50 [48] was 20.8 µM (inactive). The GI50 [49] was 11.9 µM (inactive), the GI50 [50] was 15.3 µM (inactive) and the GI50 [51] was 28.1 µM (inactive). For the same compound, the GI50 [52] was 41.2 µM (inactive), the GI50 [53] was 29.4 µM (inactive) and the GI50 [54] was 24.3 µM (inactive). For the same compound, the GI50 [55] was 27.5 µM (inactive), the GI50 [56] was 23.5 µM (inactive) and the GI50 [57] was 7.59 µM (inactive).

With `S=C(N/N=C\C=N/NC(=S)N1CCCCCC1)N1CCCCCC1` the GI50 [1] was 3.93 µM (inactive), the GI50 [2] was 12.2 µM (inactive) and the GI50 [3] was 8.59 µM (inactive). The GI50 [4] was > 100 µM (inactive), the GI50 [5] was 6.78 µM (inactive) and the GI50 [6] was 15.9 µM (inactive). The GI50 [7] was 7.1 µM (inactive), the GI50 [58] was 6.85 µM (inactive) and the GI50 [8] was 7.73 µM (inactive). The GI50 [9] was 14.3 µM (inactive), the GI50 [10] was 7.28 µM (inactive) and the GI50 [12] was 64.9 µM (inactive). The GI50 [13] was > 100 µM (inactive), the GI50 [14] was 22.2 µM (inactive) and the GI50 [15] was 34.2 µM (inactive). The GI50 [16] was > 100 µM (inactive), the GI50 [17] was 22.5 µM (inactive) and the GI50 [18] was 25.5 µM (inactive). For the same compound, the GI50 [19] was 9.31 µM (inactive), the GI50 [20] was 8.02 µM and the GI50 [22] was 9.12 µM (inactive). For the same compound, the GI50 [23] was 17.1 µM (inactive), the GI50 [24] was 14.2 µM (inactive) and the GI50 [25] was > 68.1 µM (inactive). The GI50 [26] was 18.1 µM (inactive), the GI50 [27] was 13.5 µM (inactive) and the GI50 [28] was 13.8 µM (inactive). For the same compound, the GI50 [29] was 18.7 µM (inactive), the GI50 [30] was 20.6 µM (inactive) and the GI50 [31] was 32.8 µM (inactive). For the same compound, the GI50 [32] was 26 µM (inactive), the GI50 [33] was 57.9 µM (inactive) and the GI50 [34] was > 64.9 µM (inactive). The GI50 [35] was 4.65 µM (inactive), the GI50 [36] was 8.07 µM (inactive) and the GI50 [37] was 28.6 µM (inactive). For the same compound, the GI50 [38] was 14.3 µM (inactive), the GI50 [39] was > 31.1 µM (inactive) and the GI50 [40] was 9.14 µM (inactive). For the same compound, the GI50 [41] was > 100 µM (inactive), the GI50 [42] was > 57.3 µM (inactive) and the GI50 [43] was > 31.5 µM (inactive). The GI50 [44] was 8.22 µM (inactive), the GI50 [46] was 7.73 µM (inactive) and the GI50 [47] was > 61.9 µM (inactive). The GI50 [48] was 15.6 µM (inactive), the GI50 [49] was 42.8 µM (inactive) and the GI50 [50] was > 26.7 µM (inactive). For the same compound, the GI50 [51] was 5.21 µM (inactive), the GI50 [52] was > 100 µM (inactive) and the GI50 [53] was 1.44 µM (inactive). For the same compound, the GI50 [54] was 59 µM (inactive), the GI50 [55] was 57.3 µM (inactive) and the GI50 [56] was 10.5 µM (inactive). The GI50 [57] was 21.2 µM (inactive).
